Results from US8030466B2, “3′-o-fluorescently modified nucleotides and uses thereof” (Korea Institute of Science and Technology, priority 2009, dated 2011).

Target: T1, Therminator II DNA polymerase (Thermococcus sp., UniProt Q56366, A485L/D141A/E143A/Y409V)
T1 construct: purchased New England Biolabs, Inc. (printed for the ThermoPol II buffer; inferred for the enzyme)
Experiment: Extension of DNA primer with MRT by polymerase (MALDI-TOF MS readout)
Type: biochemical
Protocol: The reaction was consisted of 20 cycles at 94° C. for 20 sec, 46° C. for 40 sec, and 60° C. for 90 sec. After the reaction, the mixture was incubated with strepatavidin-coated magnetic beads ([…], Dynabead MyOne, Invitrogen) in PBS buffer ([…]) at room temperature for 30 min.
After removing a fluorescent group from the 3′-end as the same manner as described in Example 4, the obtained DNA was purified by reverse-phased HPLC. The purified DNA was used as a primer for the second extension reaction with the MRT. The extension was performed by the same manner as described in Example 2. The resultant product was characterized using MALDI-TOF mass spectrometry (FIG. 3d).

T1 sequence (Q56366 whole entry D141A/E143A/Y409V/A485L): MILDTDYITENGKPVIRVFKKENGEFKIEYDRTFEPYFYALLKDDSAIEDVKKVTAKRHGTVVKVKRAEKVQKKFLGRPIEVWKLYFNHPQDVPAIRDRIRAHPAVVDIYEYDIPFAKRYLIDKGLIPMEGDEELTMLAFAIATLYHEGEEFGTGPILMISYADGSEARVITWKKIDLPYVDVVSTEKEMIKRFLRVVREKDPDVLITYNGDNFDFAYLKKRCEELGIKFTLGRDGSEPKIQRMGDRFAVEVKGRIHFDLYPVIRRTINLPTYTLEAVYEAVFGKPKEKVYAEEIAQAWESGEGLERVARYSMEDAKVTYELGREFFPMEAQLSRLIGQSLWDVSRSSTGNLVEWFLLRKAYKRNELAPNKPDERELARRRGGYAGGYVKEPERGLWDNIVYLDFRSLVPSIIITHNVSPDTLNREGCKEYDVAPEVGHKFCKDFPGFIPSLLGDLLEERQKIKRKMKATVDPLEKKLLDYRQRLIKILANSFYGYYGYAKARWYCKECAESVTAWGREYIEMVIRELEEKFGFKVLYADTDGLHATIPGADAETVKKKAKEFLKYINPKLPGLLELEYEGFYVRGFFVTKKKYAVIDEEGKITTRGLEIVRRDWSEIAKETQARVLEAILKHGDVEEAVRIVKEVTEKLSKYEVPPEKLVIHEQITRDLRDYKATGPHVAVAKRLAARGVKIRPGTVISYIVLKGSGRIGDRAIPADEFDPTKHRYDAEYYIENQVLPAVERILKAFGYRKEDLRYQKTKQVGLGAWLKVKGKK

Substance: 3′-O-(7-hydroxycoumarin)-dTTP [Compound 13]
- primer extension by MRT (biotinylated primer/template, 4 units Therminator II DNA polymerase, 20 cycles): the primer was extended by MRT
- second primer extension by MRT after label elimination (deprotected, HPLC-purified extended primer used as primer, Therminator II DNA polymerase): the primer chain could be extended again by another MRT
